Test systems include T47D; Hs-578T; SW-620; LOX IMVI; PC-3; UACC-257; HOP-62; OVCAR-8; OVCAR-4; SR; SF-539; MOLT-4; DU-145; KM12; Malme-3M; TK-10; A498; SK-OV-3.
Common to all, as to assay: DTP human tumour cell line panel, 48 h

Each structure is given as a SMILES string.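 Values below derive from 48-hour exposures of cells grown in 96-well plates, with endpoints linearly interpolated between the two concentrations bracketing the appropriate inhibition level. The concentration for 50% growth inhibition is given as GI50.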 Calls of active or inactive are those of the source. Rule as the data show it: active = GI50 up to about 1.1 µM and inactive = higher.

Consider `COc1c2occc2c(N)c2ccc(=O)oc12`, for which the GI50 in the assay with T47D, with Hs-578T, in the assay on SW-620, in the assay on LOX IMVI, with PC-3 and in the assay on UACC-257 was > 100 µM (inactive) throughout. The GI50 with HOP-62 was > 100 µM (inactive); in the assay on OVCAR-8, > 100 µM (inactive); in the assay with OVCAR-4 it was > 100 µM (inactive); in the assay on SR it was > 100 µM (inactive); in the assay on SF-539, 75.2 µM (inactive); in the assay with MOLT-4, > 100 µM (inactive). For the same compound, the GI50 in the assay with DU-145, in the assay on KM12, with Malme-3M, with TK-10 and in the assay with A498 was > 100 µM (inactive) throughout.
With `NCOC(=O)Cc1ccc(Br)cc1`, the GI50 in the assay on T47D, in the assay on Hs-578T, in the assay with SW-620, with LOX IMVI, with PC-3 and in the assay on UACC-257 was > 100 µM (inactive) throughout. The GI50 with HOP-62 was > 100 µM (inactive); in the assay with OVCAR-8 it was > 100 µM (inactive); with SK-OV-3, > 100 µM (inactive); with SR it was 0.383 µM (active); with SF-539 it was > 100 µM (inactive); in the assay with MOLT-4, 17.4 µM (inactive). In addition, the GI50 in the assay with DU-145, in the assay on Malme-3M, in the assay on TK-10 and in the assay on A498 was > 100 µM (inactive) each time.
Regarding `COC1OC2COC(c3ccccc3)OC2C(O)C1OC(=S)c1ccccc1` (configuration not stated), the GI50 in the assay on T47D was 14.9 µM (inactive); with Hs-578T, 62.1 µM (inactive); in the assay with SW-620, 45.3 µM (inactive); in the assay with LOX IMVI it was 0.244 µM (active); in the assay on PC-3, 18.3 µM (inactive); in the assay with UACC-257, 50 µM (inactive). Besides, the GI50 in the assay on HOP-62 is 30.8 µM (inactive); in the assay on OVCAR-8, 67.8 µM (inactive); in the assay on OVCAR-4, 73.6 µM (inactive); in the assay on SK-OV-3, > 100 µM (inactive); in the assay with SR, 42.9 µM (inactive); in the assay with SF-539, 35.2 µM (inactive). Further, the GI50 was 70.6 µM (inactive) with MOLT-4; 97.3 µM (inactive) in the assay on DU-145; 21.2 µM (inactive) with Malme-3M; 62.5 µM (inactive) in the assay on TK-10; 40.5 µM (inactive) in the assay with A498.
As for `Cc1nc(O)nc(N/N=C/c2ccc(Cl)cc2)c1C(=O)NC(C)(CO)CO`, the GI50 with T47D was 60.7 µM (inactive); with Hs-578T it was > 100 µM (inactive); with SW-620, > 100 µM (inactive); with LOX IMVI, > 100 µM (inactive); with PC-3, > 100 µM (inactive); in the assay on UACC-257, > 100 µM (inactive). Further, the GI50 with HOP-62, in the assay on OVCAR-8, with OVCAR-4, with SK-OV-3, in the assay on SR and with MOLT-4 was > 100 µM (inactive) in each case. For the same compound, the GI50 with DU-145, in the assay with KM12, with Malme-3M, in the assay on TK-10 and in the assay on A498 was > 100 µM (inactive) each time.
As to `CC(Cc1ccc(Cl)cc1Cl)NO` (configuration not stated), the GI50 was > 100 µM (inactive) in the assay on T47D; 80 µM (inactive) in the assay with Hs-578T; > 100 µM (inactive) with SW-620; > 100 µM (inactive) in the assay on LOX IMVI; > 100 µM (inactive) in the assay with PC-3; > 100 µM (inactive) in the assay with UACC-257. The GI50 with HOP-62 was > 100 µM (inactive); with OVCAR-8, > 100 µM (inactive); in the assay with OVCAR-4 it was > 100 µM (inactive); in the assay on SK-OV-3, > 100 µM (inactive); with SR, > 100 µM (inactive); in the assay on MOLT-4, 83.6 µM (inactive). Further, the GI50 with DU-145, in the assay with KM12, in the assay on Malme-3M, in the assay with TK-10 and in the assay on A498 was > 100 µM (inactive) throughout.
Take `CC(=O)OCC1(CNc2nc(N)ncc2C#N)CC(CCc2ccccc2)C1` (configuration not stated): the GI50 is 13.3 µM (inactive) in the assay with T47D; 23.9 µM (inactive) with Hs-578T; > 100 µM (inactive) with SW-620; 4.58 µM (inactive) in the assay with LOX IMVI; > 100 µM (inactive) in the assay with PC-3; > 100 µM (inactive) in the assay with UACC-257. Besides, the GI50 with HOP-62 is 14.4 µM (inactive); in the assay with OVCAR-8 it was 50.2 µM (inactive); in the assay on OVCAR-4, > 100 µM (inactive); with SR, 4.8 µM (inactive); in the assay on SF-539 it was > 100 µM (inactive); in the assay on MOLT-4, 2.89 µM (inactive). Moreover, the GI50 with DU-145 is 32.1 µM (inactive); with KM12 it was > 100 µM (inactive); with Malme-3M it was > 100 µM (inactive); in the assay with TK-10, > 10 µM (inactive); in the assay on A498, 21.9 µM (inactive).
In the case of `COc1cc(CC(C)NC(C)=O)cc(OC)c1` (configuration not stated), the GI50 in the assay with T47D, in the assay on Hs-578T, in the assay with SW-620, in the assay on LOX IMVI, in the assay with PC-3 and in the assay with UACC-257 was > 100 µM (inactive) throughout. The GI50 is > 100 µM (inactive) in the assay with HOP-62; > 100 µM (inactive) with OVCAR-8; > 100 µM (inactive) in the assay on SK-OV-3; 3.04 µM (inactive) in the assay with SR; > 100 µM (inactive) with SF-539; > 100 µM (inactive) in the assay with MOLT-4. Moreover, the GI50 in the assay on DU-145, in the assay with KM12, in the assay with Malme-3M, in the assay on TK-10 and in the assay with A498 was > 100 µM (inactive) each time.
Turning to `Brc1ccc(/N=N/N2CCCCC2)cc1`, the GI50 with T47D is 42.3 µM (inactive); with Hs-578T, 65.5 µM (inactive); with SW-620, 52.7 µM (inactive); in the assay on LOX IMVI, 35.7 µM (inactive); with PC-3, 35.2 µM (inactive); in the assay with UACC-257, 49.3 µM (inactive). In addition, the GI50 in the assay on HOP-62 is 67 µM (inactive); in the assay on OVCAR-8, 45.6 µM (inactive); in the assay with OVCAR-4 it was 74.8 µM (inactive); in the assay with SK-OV-3 it was > 100 µM (inactive); in the assay with SR, 16.6 µM (inactive); with SF-539, > 100 µM (inactive). In addition, the GI50 was 19.9 µM (inactive) in the assay on MOLT-4; > 100 µM (inactive) in the assay on DU-145; 27 µM (inactive) with KM12; 59.2 µM (inactive) in the assay with TK-10; 57.5 µM (inactive) with A498.
`CC1=CC(=O)c2ccc(C)cc2C1=O` [CHIMAPHILIN]: the GI50 in the assay on T47D was 2.91 µM (inactive); with Hs-578T, 20.5 µM (inactive); with SW-620, 11.8 µM (inactive); with LOX IMVI it was 5.09 µM (inactive); in the assay with PC-3, 11.6 µM (inactive); in the assay on UACC-257, 12.9 µM (inactive). For the same compound, the GI50 in the assay on HOP-62 is 17.4 µM (inactive); with OVCAR-8, 10.6 µM (inactive); in the assay with OVCAR-4, 16.7 µM (inactive); in the assay on SK-OV-3, 16.9 µM (inactive); in the assay on SR, 3.4 µM (inactive); in the assay with SF-539 it was 15.6 µM (inactive). Besides, the GI50 in the assay with MOLT-4 was 2.41 µM (inactive); in the assay on DU-145, 16.8 µM (inactive); in the assay with KM12, 5.96 µM (inactive); in the assay with TK-10, 19 µM (inactive); in the assay with A498, 17.6 µM (inactive).

What is called GI50 is the concentration at which growth is held to half of that of the control.

Source of the values: ChEMBL document CHEMBL1201862, “PubChem BioAssay data set” (2004).
